Data taken from US10588317B2, “Isoxazoline-substituted benzamides and analogues as insecticides” (priority 2015, dated 2020).

Key:
Assay type in all cases: in vivo
[1] = tested on: Diabrotica balteata; test: Diabrotica balteata (corn root worm), sprayed maize sprouts; conditions: 96 h, application rate 200 ppm, L2 larvae, 4 days after infestation, read-out: effect in at least one of the two categories (mortality or growth inhibition)
Procedure, shortened: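 Read-out at 4 days post-infestation: mortality and growth inhibition relative to untreated samples. Test solutions (200 ppm, from DMSO stocks) were sprayed onto agar-held maize sprouts, which after drying received 6–10 L2 larvae per well.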

[2] = tested on: Euschistus heros; test: Euschistus heros (neotropical brown stink bug), sprayed soybean leaves; conditions: 120 h, application rate 200 ppm, N2 nymphs, 5 days after infestation, read-out: effect in at least one of the two categories (mortality or growth inhibition)
Procedure, shortened: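 Scored 5 days post-infestation versus untreated controls, for both mortality and growth inhibition: N2 nymphs placed on agar-mounted soybean leaves previously sprayed at 200 ppm with aqueous test solutions from DMSO stocks and left to dry.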

[3] = tested on: Myzus persicae; test: Myzus persicae (green peach aphid): feeding/contact activity; conditions: 144 h, application rate 200 ppm, aphid population of mixed ages, 6 days after infestation, read-out: mortality
Experimental: (§1) Sunflower leaf discs were placed onto agar in a 24-well microtiter plate and sprayed with aqueous test solutions prepared from 10'000 ppm DMSO stock solutions. After drying, the leaf discs were infested with an aphid population of mixed ages. The samples were assessed for mortality 6 days after infestation.

[4] = tested on: Plutella xylostella; test: Plutella xylostella (diamond back moth), artificial diet; conditions: 120 h, application rate 200 ppm, L2 larvae, 5 days after infestation, read-out: effect in at least one of the two categories (mortality or growth inhibition)
Procedure, shortened: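 L2 larvae (10-15 per well) fed on compound-treated, dried artificial diet; test solutions diluted in water from 10'000 ppm DMSO stocks. Readout 5 days post-infestation as mortality or growth inhibition versus untreated diet, with at least 80% effect at 200 ppm as threshold.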

[5] = tested on: Spodoptera littoralis; test: Spodoptera littoralis (Egyptian cotton leaf worm), sprayed cotton leaf discs; conditions: foliar, 72 h, application rate 200 ppm, L1 larvae, 3 days after infestation, read-out: control (mortality, anti-feeding effect, growth inhibition)
Procedure, shortened: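 Five first-instar larvae placed on dried cotton leaf discs (on agar) previously sprayed with aqueous dilutions of 10'000 ppm DMSO stocks. Scored at 3 days against untreated discs for mortality, feeding inhibition and growth inhibition; any category above untreated counts as control.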

[6] = tested on: Tetranychus urticae; test: Tetranychus urticae (two-spotted spider mite): feeding/contact activity; conditions: 192 h, application rate 200 ppm, mixed population (mobile stages), 8 days after infestation, read-out: mortality
Experimental: Bean leaf discs on agar in 24-well microtiter plates were sprayed with aqueous test solutions prepared from 10'000 ppm DMSO stock solutions. After drying the leaf discs were infested with a mite population of mixed ages. The samples were assessed for mortality on mixed population (mobile stages) 8 days after infestation.

[7] = tested on: Thrips tabaci; test: Thrips tabaci (onion thrips): feeding/contact activity; conditions: 144 h, application rate 200 ppm, Thrips population of mixed ages, 6 days after infestation, read-out: mortality
Experimental: as §1, with “on” for “onto”, “in” for “in a”, “plates” for “plate”, “drying” for “drying,”, “a Thrips” for “an aphid”

Cc1cc(C2=NO[C@@](c3cc(Cl)c(F)c(Cl)c3)(C(F)(F)F)C2)ccc1C(=O)NC1CON(S(=O)(=O)N(C)C(C)(C)C)C1 (stereo partly drawn) [Compound A100, N-[2-[tert-butyl(methyl)sulfamoyl]isoxazolidin-4-yl]-4-[(5S)-5-(3,5-dichloro-4-fluoro-phenyl)-5-(trifluoromethyl)-4H-isoxazol-3-yl]-2-methyl-benzamide]
≥ 80%: percent effect (mortality or growth inhibition) at 200 ppm [1] | percent effect (mortality or growth inhibition) at 200 ppm [2] | mortality at 200 ppm [3] | percent effect (mortality or growth inhibition) at 200 ppm [4] | mortality at 200 ppm [5] | mortality at 200 ppm [6] | mortality at 200 ppm [7]

Cc1cc(C2=NO[C@@](c3cc(Cl)c(Cl)c(Cl)c3)(C(F)(F)F)C2)ccc1C(=O)NC1CON(S(=O)(=O)NC(C)C)C1 (stereo partly drawn) [Compound A101, N-[2-(isopropylsulfamoyl)isoxazolidin-4-yl]-2-methyl-4-[(5S)-5-(3,4,5-trichlorophenyl)-5-(trifluoromethyl)-4H-isoxazol-3-yl]benzamide]
≥ 80%: percent effect (mortality or growth inhibition) at 200 ppm [1] | percent effect (mortality or growth inhibition) at 200 ppm [2] | mortality at 200 ppm [3] | percent effect (mortality or growth inhibition) at 200 ppm [4] | mortality at 200 ppm [5] | mortality at 200 ppm [6] | mortality at 200 ppm [7]

CCCCN(C)S(=O)(=O)N1CC(NC(=O)c2ccc(C3=NO[C@@](c4cc(Cl)c(Cl)c(Cl)c4)(C(F)(F)F)C3)cc2C)CO1 (stereo partly drawn) [Compound A85, N-[2-[butyl(methyl)sulfamoyl]isoxazolidin-4-yl]-2-methyl-4-[(5S)-5-(3,4,5-trichlorophenyl)-5-(trifluoromethyl)-4H-isoxazol-3-yl]benzamide]
≥ 80%: percent effect (mortality or growth inhibition) at 200 ppm [1] | percent effect (mortality or growth inhibition) at 200 ppm [2] | mortality at 200 ppm [3] | percent effect (mortality or growth inhibition) at 200 ppm [4] | mortality at 200 ppm [5] | mortality at 200 ppm [6] | mortality at 200 ppm [7]

Cc1cc(C2=NO[C@@](c3cc(Cl)cc(C(F)(F)F)c3)(C(F)(F)F)C2)ccc1C(=O)N[C@@H]1CON(S(=O)(=O)CC(F)(F)F)C1 [Compound A214]
≥ 80%: percent effect (mortality or growth inhibition) at 200 ppm [1] | percent effect (mortality or growth inhibition) at 200 ppm [2] | mortality at 200 ppm [3] | percent effect (mortality or growth inhibition) at 200 ppm [4] | mortality at 200 ppm [5] | mortality at 200 ppm [6] | mortality at 200 ppm [7]

Cc1cc(C2=NO[C@](c3cc(Cl)c(F)c(Cl)c3)(C(F)(F)F)C2)ccc1C(=O)N[C@H]1CON(S(=O)(=O)CCl)C1 [Compound A164, N-[(4R)-2-(chloromethylsulfonyl)-1,2-oxazolidin-4-yl]-4-[(5R)-5-(3,5-dichloro-4-fluorophenyl)-5-(trifluoromethyl)-4H-1,2-oxazol-3-yl]-2-methylbenzamide]
≥ 80%: percent effect (mortality or growth inhibition) at 200 ppm [1] | percent effect (mortality or growth inhibition) at 200 ppm [2] | mortality at 200 ppm [3] | percent effect (mortality or growth inhibition) at 200 ppm [4] | mortality at 200 ppm [5] | mortality at 200 ppm [6] | mortality at 200 ppm [7]

Cc1cc(C2=NO[C@](c3cc(Cl)c(Cl)c(Cl)c3)(C(F)(F)F)C2)ccc1C(=O)N[C@H]1CON(S(=O)(=O)CCl)C1 [Compound A220, N-[(4R)-2-(chloromethylsulfonyl)-1,2-oxazolidin-4-yl]-2-methyl-4-[(5R)-5-(3,4,5-trichlorophenyl)-5-(trifluoromethyl)-4H-1,2-oxazol-3-yl]benzamide]
≥ 80%: percent effect (mortality or growth inhibition) at 200 ppm [1] | percent effect (mortality or growth inhibition) at 200 ppm [2] | mortality at 200 ppm [3] | percent effect (mortality or growth inhibition) at 200 ppm [4] | mortality at 200 ppm [5] | mortality at 200 ppm [6] | mortality at 200 ppm [7]

CN(C1CC1)S(=O)(=O)N1C[C@@H](NC(=O)c2ccc(C3=NO[C@@](c4cc(Cl)cc(Cl)c4)(C(F)(F)F)C3)cc2Cl)CO1 [Compound A153]
≥ 80%: percent effect (mortality or growth inhibition) at 200 ppm [1] | percent effect (mortality or growth inhibition) at 200 ppm [2] | mortality at 200 ppm [3] | percent effect (mortality or growth inhibition) at 200 ppm [4] | mortality at 200 ppm [5] | mortality at 200 ppm [6] | mortality at 200 ppm [7]
